Columns and labels:
[1] = tested on: mouse lymphoma cell line L5178Y; assay: Growth inhibition of mouse lymphoma cells (L5178Y), 48 h; type: cell-based; conditions: 48 hours; for inhibition at 20 µM: 20 micromolar; for inhibition at 50 µM: 50 micromolar; for inhibition at 2 µM: 2 micromolar; for inhibition at 4 µM: 4 micromolar; for inhibition at 10 µM: 10 micromolar, read-out: Inhibition of growth
Description: Effects of compounds on growth of mouse lymphoma cell line L5178Y, were determined as follows. Cells were grown in Fischer's medium (obtained from Life Technologies, Inc., Gaithersburg, Md.) containing 0.24 grams per liter (g/l) sodium pyruvate, 1.12 g/l surfactant (Pluronic F-68, from BASF Corporation, Parsippany, N.J.), and 10% by volume (10% v/v) heat-inactivated horse serum (obtained from Life Technologies, Inc) at 37° C. To 30 ml aliquots of cell suspension (2×10^4 cells per milliliter (mL)) in exponential growth phase were added test compounds dissolved in dimethylsulfoxide (DMSO) at various concentrations such that the final DMSO concentration in the mixtures was 0.25%. Tubes were gassed with 5% CO2 then incubated on a roller drum apparatus. After 48 hours the cells were treated with 0.1% trypsin (Life Technologies, Inc.,) for 10 minutes and counted in a Coulter Counter equipped with a 140 micrometer (μM) aperture. Percent inhibition of growth was calculated by comparing the number of cells in assays containing test compound with the number of cells in controls lacking the test compound.

[2] = tested on: tubulin; assay: Inhibition of microtubule assembly; type: biochemical, calf; conditions: preincubated 1 h at 37° C.
Description: Compounds were evaluated for their ability to inhibit tubulin assembly into microtubules by comparing the extent of cold-reversible assembly in the presence of each test compound with controls lacking the test compound. Tubulin was isolated from calf brain tissue by two cycles of assembly/disassembly as described by Vallee, R. B. in Methods in Enzymology, vol. 134, pp. 89-104. Assay mixtures contained 1 mg/ml of purified tubulin in 1 M sodium glutamate, pH 6.6, 1 millimolar (mM) MgCl2, and the test compound, which was added as a solution in DMSO. The final concentration of DMSO in each assay was 2% (v/v). Assay mixtures were preincubated at 37° C. for 1 h, then chilled on ice for 5 min. Microtubule assembly was initiated by addition of guanosine triphosphate (0.1 mM), and incubation at 37° C. Assembly was followed turbidimetrically at 350 nm for 20 minutes (min) using a temperature-controlled cell in a Cary 2200 spectrophotometer. Since microtubules undergo depolymerization at 0° C., assembly was confirmed by measuring the reduction in turbidity following incubation for 30 min at 0° C. The difference in absorbance before and after incubation for 30 min at 0° C. (ΔA350) represents the extent of microtubule assembly. Inhibition of assembly was calculated by subtracting the (ΔA350) values for treatments with test compounds from the (ΔA350) for controls without test compound, and expressing this difference as a percentage of the (ΔA350) value for the control. Results including test compound number, test compound concentration in micromoles per liter (μM) and percent inhibition are set forth in Table 11.

With CCC(C)(NC(=O)c1cc(F)cc(F)c1)C(=O)CCl (stereo not drawn) [Compound 34] as the molecule, how does the inhibition at 20 µM [1] read?
The inhibition at 20 µM was 88%.

With CCC(C)(NC(=O)c1cccc(Cl)c1)C(=O)CCl (stereo not drawn) [Compound 35] as the molecule, how does the inhibition at 20 µM [1] read?
The inhibition at 20 µM was 95%.

And the “Percent inhibition of microtubule assembly” value ([2]; 50 μM)?
The value was 17.9%.

CCC(C)(NC(=O)c1ccccc1)C(=O)CCl (stereo not drawn) [Compound 36] was tested. Which inhibition at 50 µM [1] did it give?
The inhibition at 50 µM was 91%.

With CCC(C)(NC(=O)c1cc(F)c(F)c(F)c1)C(=O)CCl (stereo not drawn) [Compound 37] as the molecule, how does the inhibition at 50 µM [1] read?
Its inhibition at 50 µM is 96%.

For CC(C)C(C)(NC(=O)c1cc(Cl)cc(Cl)c1)C(=O)CCl (stereo not drawn) [Compound 38], which inhibition at 50 µM [1] is on record?
The inhibition at 50 µM was 66%.

How did the inhibition at 50 µM [1] turn out when CC(C)(NC(=O)c1ccccc1)C(=O)CCl [Compound 39] was run?
The inhibition at 50 µM was 96%.

How did the inhibition at 50 µM [1] turn out when CC(C)(NC(=O)c1cc(Cl)cc(Cl)c1)C(=O)C(Cl)Cl [Compound 40] was run?
Its inhibition at 50 µM is 92%.

Which “Percent inhibition of microtubule assembly” value ([2]; 5 μM) does the source give for CCC(C)(NC(=O)c1cc(Cl)cc(Br)c1)C(=O)C(Br)Br (stereo not drawn) [Compound 41] here?
The value was 76.0%.

With CC(C)(NC(=O)c1cc(Cl)nc(Cl)c1)C(=O)C(Br)Br [Compound 42] as the molecule, how does the inhibition at 2 µM [1] read?
Its inhibition at 2 µM is 98%.

Which inhibition at 4 µM [1] does the source give for CC(C)(NC(=O)c1cc(Cl)nc(Cl)c1)C(=O)CCl [Compound 43] here?
The inhibition at 4 µM was 92%.

How did the inhibition at 50 µM [1] turn out when CCC(C)(NC(=O)c1cccnc1)C(=O)CCl (stereo not drawn) [Compound 45] was run?
The inhibition at 50 µM was 36%.

For CCC(C)(NC(=O)c1ccc(Cl)nc1)C(=O)CCl (stereo not drawn) [Compound 46], which inhibition at 50 µM [1] is on record?
Its inhibition at 50 µM is 84%.

For CC(C)(NC(=O)c1cc(Br)c(Br)s1)C(=O)CCl [Compound 47], which inhibition at 20 µM [1] is on record?
Its inhibition at 20 µM is 96%.

Which inhibition at 50 µM [1] does the source give for CCC(C)(NC(=O)c1ccc(C)s1)C(=O)CCl (stereo not drawn) [Compound 48] here?
The inhibition at 50 µM was 97%.

Which inhibition at 2 µM [1] does the source give for CC(C)(NC(=O)c1cccs1)C(=O)C(Br)Br [Compound 49] here?
Its inhibition at 2 µM is 97%.

With CCC(C)(NC(=O)c1ccc(Br)o1)C(=O)C(Br)Br (stereo not drawn) [Compound 50] as the molecule, how does the inhibition at 10 µM [1] read?
Its inhibition at 10 µM is 95%.

Which inhibition at 50 µM [1] does the source give for CC(C)(NC(=O)c1cccs1)C(=O)CCl [Compound 51] here?
Its inhibition at 50 µM is 95%.

How did the inhibition at 20 µM [1] turn out when CC(C)(NC(=O)c1cc(Cl)sc1Cl)C(=O)CCl [Compound 52] was run?
Its inhibition at 20 µM is 89%.

Which inhibition at 50 µM [1] does the source give for CCC(C)(NC(=O)c1ccc2ncoc2c1)C(=O)CCl (stereo not drawn) [Compound 53] here?
The inhibition at 50 µM was 95%.

CCC(C)(NC(=O)c1ccc2ocnc2c1)C(=O)CCl (stereo not drawn) [Compound 54] was tested. Which inhibition at 50 µM [1] did it give?
The inhibition at 50 µM was 36%.

For CCC(C)(NC(=O)c1ccc2ncsc2c1)C(=O)CCl (stereo not drawn) [Compound 55], which inhibition at 10 µM [1] is on record?
The inhibition at 10 µM was 97%.

With CCC(C)(NC(=O)c1cc(Cl)c2ncoc2c1)C(=O)CCl (stereo not drawn) [Compound 56] as the molecule, how does the inhibition at 10 µM [1] read?
Its inhibition at 10 µM is 81%.

For CCC(C)(NC(=O)c1cc(Cl)c2nc(C)oc2c1)C(=O)CCl (stereo not drawn) [Compound 57], which inhibition at 10 µM [1] is on record?
The inhibition at 10 µM was 97%.

With CC(C)(NC(=O)C1CCCCC1)C(=O)CCl [Compound 58] as the molecule, how does the inhibition at 50 µM [1] read?
The inhibition at 50 µM was 77%.

Which inhibition at 4 µM [1] does the source give for CC(C)(NC(=O)C(Cl)(Cl)Cl)C(=O)CCl [Compound 59] here?
Its inhibition at 4 µM is 91%.

How did the inhibition at 2 µM [1] turn out when CC(C)(NC(=O)C(Cl)(Cl)Cl)C(=O)C(Br)Br [Compound 60] was run?
Its inhibition at 2 µM is 98%.
